Drawing on US8563730B2, “Pyrazole and fused pyrazole glucokinase activators” (Takeda San Diego, Inc., priority 2008, dated 2013), this text covers EC50 and Emax for 21 molecules.

The target of the assay is T1, GK (glucokinase, residues 12-465) (Homo sapiens, UniProt P35557).
T1 construct: I.D. No. 1 corresponds to residues 12-465 of glucokinase; made in house; host or cells: DH10b-T1r E. coli
T1 sequence (P35557 with tags, fused parts or gaps isoform P35557-2): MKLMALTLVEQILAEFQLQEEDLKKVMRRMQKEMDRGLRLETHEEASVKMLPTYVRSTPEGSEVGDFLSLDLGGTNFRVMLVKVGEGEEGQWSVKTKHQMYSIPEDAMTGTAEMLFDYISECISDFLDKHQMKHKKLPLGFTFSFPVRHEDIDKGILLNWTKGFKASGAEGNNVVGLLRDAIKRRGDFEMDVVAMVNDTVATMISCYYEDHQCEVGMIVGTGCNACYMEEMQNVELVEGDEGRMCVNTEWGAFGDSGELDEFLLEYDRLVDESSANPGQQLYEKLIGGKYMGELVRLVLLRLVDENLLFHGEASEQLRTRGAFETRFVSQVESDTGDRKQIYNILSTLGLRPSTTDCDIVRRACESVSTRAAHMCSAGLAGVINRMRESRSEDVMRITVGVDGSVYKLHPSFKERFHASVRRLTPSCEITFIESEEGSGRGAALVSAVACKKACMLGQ
As to the kind of experiment: enzymatic glucokinase activity assay (ATP consumption, KinaseGlo luminescence). Type of assay: biochemical. The settings on record: 5 μM ATP, 5 mM Glucose, reported as bins; for EC50: Kact = concentration that displays 50% of the maximal increase in GK activity, 60 min, room temperature, read-out: pKact. The text has this: The activity of compounds as glucokinase activators may be assayed in vitro, in vivo or in a cell line. Provided below is an enzymatic glucokinase activity assay.
Purified glucokinase may be obtained as follows. […] SEQ.
The expression of recombinant glucokinase protein may be carried out by transformation and growth of DH10b-T1r E. coli cells incorporating the (pFLAG-CTC) plasmid in LB media. Protein expression can be induced in this system by the addition of IPTG to the culture medium.
Recombinant protein may be isolated from cellular extracts by passage over Sepharose Q Fast Flow resin (Pharmacia). This partially purified GK extract may then be further purified by a second passage over Poros HQ10 (Applied Biosystems). The purity of GK may be determined on denaturing SDS-PAGE gel. Purified GK may then be concentrated to a final concentration of 20.0 mg/ml. After flash freezing in liquid nitrogen, the proteins can be stored at −78° C. in a buffer containing 25 mM TRIS-HCl pH 7.6, 50 mM NaCl, and 0.5 mM TCEP.
The activation properties of compounds for GK may be determined using a black 384-well-plate format under the following reaction conditions: 25 mM Hepes pH 7.2, 25 mM NaCl, 10 mM MgCl2, 0.01% Brij35, 1 mM DTT, 5 μM ATP, 5 mM Glucose 2% DMSO. The amount of ATP consumed may be determined quantitatively by addition of equal volume of luciferase reagent (luciferase+beetle luciferin—KinaseGlo Luminescent Kinase Assay kit from Promega). The luminescence intensity may be measured by using the Analyst HT from LJL Biosystems.
The reaction mixture may then be incubated at room temperature for 60 min, and quenched and developed by addition of 10 μL of luciferase reagent. Luminescence intensities of the resulting reaction mixtures may be measured after a 10 min incubation at room temperature. The luminescence intensity may be measured by using the Analyst HT from LJL Biosystems.
pKact and % ACTmax values may be calculated by non-linear curve fitting of the compound concentrations and luminescence intensities to a standard inhibition/activation equation.
On the technique in general: Kinase-Glo reads ATP consumption through a luciferase reaction.

The mark [1] stands for this setting: calculated maximal gain in GK enzyme activity at a saturating concentration of the compound, read-out: % ACTmax.
Setting [2] is: read-out: % ACTmax, calculated maximal gain in GK enzyme activity at a saturating concentration of the compound.

Molecules are shown by their SMILES. Where two headings read alike, the source gives them in different places.

As to `Cn1ccc(NC(=O)[C@@H](CC2CCOCC2)n2ncc3c(S(=O)(=O)C4CC4)ccnc32)n1` [Compound 99, (R)-2-(4-(cyclopropylsulfonyl)-1H-pyrazolo[3,4-b]pyridin-1-yl)-N-(1-methyl-1H-pyrazol-3-yl)-3-(tetrahydro-2H-pyran-4-yl)propanamide], the EC50 was 3980 to 12600 nM. Moreover, under setting [1], the Emax was 90 to 100%.
The matching figures for `O=C1CC[C@H](C[C@@H](C(=O)Nc2ncc(F)s2)n2ncc3c(S(=O)(=O)C4CC4)cc(Cl)cc32)C1` [Compound 79, (S)-2-(6-chloro-4-(cyclopropylsulfonyl)-1H-indazol-1-yl)-N-(5-fluorothiazol-2-yl)-3-((R)-3-oxocyclopentyl)propanamide]: at most 316 nM and 90 to 100%.
For the molecule `Cn1ccc(NC(=O)[C@@H](CC2CCOCC2)n2ncc3c(S(=O)(=O)C4CC4)c(F)ccc32)n1` [Compound 166, (R)-2-(4-(cyclopropylsulfonyl)-5-fluoro-1H-indazol-1-yl)-N-(1-methyl-1H-pyrazol-3-yl)-3-(tetrahydro-2H-pyran-4-yl)propanamide], the EC50 was in the range of 3980 to 12600 nM. Also, the Emax under setting [1] is 90 to 100%.
The like results for `O=C(Nc1ncc(F)s1)C(CC1CCOCC1)n1cc2c(S(=O)(=O)C3CC3)c(F)ccc2n1` (stereo not drawn) [Compound 148, 2-(4-(cyclopropylsulfonyl)-5-fluoro-2H-indazol-2-yl)-N-(5-fluorothiazol-2-yl)-3-(tetrahydro-2H-pyran-4-yl)propanamide] were, in that order, 3980 to 12600 nM and at most 90%.
The like results for `O=C(Nc1ncc(F)s1)C(CC1CCOCC1)n1ncc2c(S(=O)(=O)C3CC3)c(F)ccc21` (stereo not drawn) [Compound 149, 2-(4-(cyclopropylsulfonyl)-5-fluoro-1H-indazol-1-yl)-N-(5-fluorothiazol-2-yl)-3-(tetrahydro-2H-pyran-4-yl)propanamide] were, in that order, at most 316 nM and at least 111%.
As to `O=C1CC[C@H](C[C@H](C(=O)Nc2cnccn2)n2ncc3c(S(=O)(=O)C4CC4)cccc32)C1` [Compound 75, (R)-2-(4-(cyclopropylsulfonyl)-1H-indazol-1-yl)-3-((R)-3-oxocyclopentyl)-N-(pyrazin-2-yl)propanamide], the EC50 is 398 to 1260 nM. For the same molecule, the Emax under setting [1] was 90 to 100%.
Regarding `O=C1CC[C@H](CC(C(=O)Nc2ncc(Cl)s2)n2ncc3c(S(=O)(=O)C4CC4)cccc32)C1` (stereo partly drawn) [Compound 11, N-(5-chlorothiazol-2-yl)-2-(4-(cyclopropylsulfonyl)-1H-indazol-1-yl)-3-((R)-3-oxocyclopentyl)propanamide], the EC50 was at most 316 nM. The Emax under setting [1] is 101 to 105%.
For `O=C(Nc1cnccn1)C(CC1CCOCC1)n1ncc2c(S(=O)(=O)C3CC3)cccc21` (stereo not drawn) [Compound 65, 2-(4-(cyclopropylsulfonyl)-1H-indazol-1-yl)-N-(pyrazin-2-yl)-3-(tetrahydro-2H-pyran-4-yl)propanamide], the EC50 lay within 398 to 1260 nM. Besides, the Emax under setting [1] is 90 to 100%.
With `Cn1ccc(NC(=O)C(CC2CCOCC2)n2ncc3c(S(=O)(=O)C4CC4)cncc32)n1` (stereo not drawn) [Compound 151, 2-(4-(cyclopropylsulfonyl)-1H-pyrazolo[3,4-c]pyridin-1-yl)-N-(1-methyl-1H-pyrazol-3-yl)-3-(tetrahydro-2H-pyran-4-yl)propanamide], the EC50 lay within 1580 to 3160 nM. Also, the Emax under setting [1] is 90 to 100%.
Turning to `COc1cc(S(=O)(=O)C2CC2)c2cn(C(CC3CCOCC3)C(=O)Nc3ncc(F)s3)nc2c1` (stereo not drawn) [Compound 73, 2-(4-(cyclopropylsulfonyl)-6-methoxy-2H-indazol-2-yl)-N-(5-fluorothiazol-2-yl)-3-(tetrahydro-2H-pyran-4-yl)propanamide], the EC50 is at least 15800 nM. Besides, under setting [1], the Emax was 90 to 100%.
Take `CCn1ccc(NC(=O)C(CC2CCOCC2)n2ncc3c(S(=O)(=O)C4CC4)c(F)ccc32)n1` (stereo not drawn) [Compound 155, 2-(4-(cyclopropylsulfonyl)-5-fluoro-1H-indazol-1-yl)-N-(1-ethyl-1H-pyrazol-3-yl)-3-(tetrahydro-2H-pyran-4-yl)propanamide]: the EC50 was at most 316 nM. For the same molecule, the Emax under setting [1] was 106 to 110%.
`O=C(Nc1ncc(F)s1)C(CC1CCOCC1)n1ncc2c(S(=O)(=O)C3CC3)cncc21` (stereo not drawn) [Compound 13, 2-(4-(cyclopropylsulfonyl)-1H-pyrazolo[3,4-c]pyridin-1-yl)-N-(5-fluorothiazol-2-yl)-3-(tetrahydro-2H-pyran-4-yl)propanamide]: the EC50 was at most 316 nM. Moreover, the Emax under setting [2] is 106 to 110%.
Regarding `O=C(Nc1ncc(F)s1)C(CC1CCOCC1)n1ncc2c(S(=O)(=O)C3CC3)cccc21` (stereo not drawn) [Compound 66, 2-(4-(cyclopropylsulfonyl)-1H-indazol-1-yl)-N-(5-fluorothiazol-2-yl)-3-(tetrahydro-2H-pyran-4-yl)propanamide], the EC50 is at most 316 nM. Further, the Emax under setting [1] was 101 to 105%.
The matching figures for `O=C(Nc1cnccn1)[C@H](CC1CCOCC1)n1ncc2c(S(=O)(=O)C3CC3)cccc21` [Compound 89, (S)-2-(4-(cyclopropylsulfonyl)-1H-indazol-1-yl)-N-(pyrazin-2-yl)-3-(tetrahydro-2H-pyran-4-yl)propanamide]: 1580 to 3160 nM and 101 to 105%.
As for `O=C(Nc1cnccn1)C(CC1CCOCC1)n1ncc2c(S(=O)(=O)C3CC3)cncc21` (stereo not drawn) [20 (Free Base), 2-(4-(cyclopropylsulfonyl)-1H-pyrazolo[3,4-c]pyridin-1-yl)-N-(pyrazin-2-yl)-3-(tetrahydro-2H-pyran-4-yl)propanamide], the EC50 was 398 to 1260 nM. In addition, under setting [2], the Emax is 101 to 105%.
The like results for `Cn1ccc(NC(=O)[C@@H](CC2CCOCC2)n2ncc3c(S(=O)(=O)C4CC4)cccc32)n1` [Compound 118] were, in that order, at least 15800 nM and at most 90%.
With `Cn1ccc(NC(=O)C(CC2CCOCC2)n2ncc3c(S(=O)(=O)C4CC4)ccnc32)n1` (stereo not drawn) [Compound 95, 2-(4-(cyclopropylsulfonyl)-1H-pyrazolo[3,4-b]pyridin-1-yl)-N-(1-methyl-1H-pyrazol-3-yl)-3-(tetrahydro-2H-pyran-4-yl)propanamide], the EC50 is 1580 to 3160 nM. Moreover, the Emax under setting [1] was 101 to 105%.
The matching figures for `COc1ccc2c(cnn2[C@@H](CC2CCOCC2)C(=O)Nc2ncc(F)s2)c1S(=O)(=O)C1CC1` [Compound 82, (S)-2-(4-(cyclopropylsulfonyl)-5-methoxy-1H-indazol-1-yl)-N-(5-fluorothiazol-2-yl)-3-(tetrahydro-2H-pyran-4-yl)propanamide]: at most 316 nM and 106 to 110%.
With `O=C(Nc1ncc(F)s1)[C@@H](CC1CCOCC1)n1cc(S(=O)(=O)C2CC2)cn1` [Compound 31, (R)-2-(4-(cyclopropylsulfonyl)-1H-pyrazol-1-yl)-N-(5-fluorothiazol-2-yl)-3-(tetrahydro-2H-pyran-4-yl)propanamide], the EC50 was at least 15800 nM. Besides, the Emax under setting [1] was at most 90%.
The like results for `O=C(Nc1ncc(F)s1)C(CC1CCOCC1)n1ncc2c(S(=O)(=O)C3CC3)cc(F)cc21` (stereo not drawn) [Compound 115, 2-(4-(cyclopropylsulfonyl)-6-fluoro-1H-indazol-1-yl)-H-(5-fluorothiazol-2-yl)-3-(tetrahydro-2H-pyran-4-yl)propanamide] were, in that order, at most 316 nM and 106 to 110%.
The like results for `O=C(Nc1cnccn1)[C@H](CC1CCOCC1)n1ncc2c(S(=O)(=O)C3CC3)ccnc21` [Compound 162, (S)-2-(4-(cyclopropylsulfonyl)-1H-pyrazolo[3,4-b]pyridin-1-yl)-N-(pyrazin-2-yl)-3-(tetrahydro-2H-pyran-4-yl)propanamide] were, in that order, 1580 to 3160 nM and 106 to 110%.
